Ends that are not written are not given here.
How the values were obtained:
integrin αVβ6 = molecular target: T1, integrin αVβ6 (Homo sapiens, UniProt P06756+P18564); test: Competition study, 125ISIB-echistatin vs ligands on coated αVβ6; assay type: binding; details: competition with 125ISIB-echistatin on α5β1, αVβ1, αVβ3, αVβ5, αVβ6
T1 construct: purchased R&D System; Minneapolis, MN, USA
Procedure: A competition study was performed to investigate the interaction of VTN(381–397 a.a.) with five different integrins. Radiolabeled echistatin, a disintegrin known to bind integrin receptors, was used as a tracer for the binding assays. Lyophilized echistatin was provided by Bachem (Bubendorf, Switzerland) and radiolabeled by conjugation with a radioiodinated benzoate (^125ISIB) to the epsilon amino group of lysine side chains. For the five integrins, α5β1, αVβ1, αVβ3, αVβ5, and αVβ6 (R&D System; Minneapolis, MN, USA), a solution at 1.8 µg/mL was prepared with integrin-binding buffer (IBB; 20 mM Tris pH 7.4, 150 mM NaCl, 2 mM CaCl2, 1 mM MgCl2, 1 mM MnCl2). Nunc Maxisorp Module plates were coated overnight at 4 °C with integrin complex at 1.8 µg/mL. After the wells were washed with sample buffer (IBB, 0.5% BSA), blocking solution (IBB, 2% BSA) was added, and the microplate was incubated for 2 h at room temperature. The wells were then washed three times with IBB/0.5% BSA. Then, ^125ISIB-echistatin was diluted in sample buffer to fixed concentrations of 4, 4, 8, 8, and 20 nM for α5β1, αVβ1, αVβ3, αVβ5, and αVβ6 competition studies, respectively. The ^125ISIB-echistatin was mixed with sample buffer at a ratio of 1:1 (total binding = control well) or with increasing concentrations of ligands (Supplementary information SI1) [complete VTN, VTN(381–397 a.a.), VTN(365–381 a.a.)] at a ratio 1:1 and added to wells in duplicate. We used 1,4,7-triazacyclononane-1,4,7-triacetic acid (NOTA) as a negative control. […] After rinsing, bound radioactivity was quantified using a gamma counter. The percentage of relative binding of radiolabeled echistatin was calculated as follows: radioactivity in the test well*100/radioactivity in the reference well. […] For comparison of the potency of ligands in inhibiting bound ^125ISIB-echistatin for different integrin complexes, the half-maximal inhibitory concentration (IC50) was calculated. The IC50 value was determined by constructing a dose–response curve and examining the effect of different concentrations of ligands on ^125ISIB-echistatin binding. […]
To determine if VTN(381–397 a.a.) could interact with integrins, we investigated its ability to compete with radiolabeled echistatin for binding to five different integrin complexes: α5β1, αVβ1, αVβ3, αVβ5 and αVβ6. […] First, the binding affinity of echistatin to the five integrins was measured by determining the equilibrium dissociation constant (KD). […] The fixed concentration of radiolabeled echistatin was determined according to its KD value. For each ligand concentration, the relative binding of ^125ISIB-echistatin to coated integrins was then measured, and values were plotted versus the logarithm of ligand concentration.

αVβ3 = details: ref [32]; cited from earlier work
Description: (§1) In this study, we started to move towards a functional investigation of the role of VTN(381–397 a.a.) in OA. VTN is known to interact with integrin receptors by its RGD motif, which is positioned far upstream from VTN(381–397 a.a.) on the N-terminal end of VTN. However, Maile and colleagues also previously described a second integrin-binding site located within the HBD between amino acids 365 and 381[32],[33]. […] Considering that the fragment VTN(381–397 ...

β3 phosphorylation = details: through binding to αVβ3; ref [32]; cited from earlier work
Description: as §1

T1 sequence (P06756 31-992 limits assumed): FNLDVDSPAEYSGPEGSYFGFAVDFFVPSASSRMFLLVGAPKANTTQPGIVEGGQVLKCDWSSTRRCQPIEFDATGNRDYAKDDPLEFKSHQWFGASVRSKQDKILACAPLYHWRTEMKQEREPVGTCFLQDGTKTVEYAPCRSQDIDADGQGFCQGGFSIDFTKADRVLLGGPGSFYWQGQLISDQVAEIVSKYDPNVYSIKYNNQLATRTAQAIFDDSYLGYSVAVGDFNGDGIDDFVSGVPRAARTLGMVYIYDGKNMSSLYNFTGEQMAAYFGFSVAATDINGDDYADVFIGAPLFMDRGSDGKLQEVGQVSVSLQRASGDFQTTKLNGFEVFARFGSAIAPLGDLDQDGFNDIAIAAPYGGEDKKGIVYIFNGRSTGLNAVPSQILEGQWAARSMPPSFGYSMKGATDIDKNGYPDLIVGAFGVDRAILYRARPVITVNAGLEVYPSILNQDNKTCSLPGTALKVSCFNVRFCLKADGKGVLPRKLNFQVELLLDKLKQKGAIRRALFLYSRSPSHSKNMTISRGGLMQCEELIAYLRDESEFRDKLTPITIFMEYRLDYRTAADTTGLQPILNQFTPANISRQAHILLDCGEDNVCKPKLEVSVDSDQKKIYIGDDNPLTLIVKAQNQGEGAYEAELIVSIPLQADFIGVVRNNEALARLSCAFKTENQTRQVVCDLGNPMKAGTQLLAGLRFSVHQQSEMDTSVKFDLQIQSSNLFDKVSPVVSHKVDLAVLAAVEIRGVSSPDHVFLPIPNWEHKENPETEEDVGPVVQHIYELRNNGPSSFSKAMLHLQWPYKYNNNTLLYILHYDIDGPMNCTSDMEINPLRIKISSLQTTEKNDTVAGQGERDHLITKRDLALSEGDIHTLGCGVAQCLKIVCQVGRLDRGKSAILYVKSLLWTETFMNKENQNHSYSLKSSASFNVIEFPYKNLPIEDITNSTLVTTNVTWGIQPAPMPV
T1 sequence (P18564 22-707 limits assumed): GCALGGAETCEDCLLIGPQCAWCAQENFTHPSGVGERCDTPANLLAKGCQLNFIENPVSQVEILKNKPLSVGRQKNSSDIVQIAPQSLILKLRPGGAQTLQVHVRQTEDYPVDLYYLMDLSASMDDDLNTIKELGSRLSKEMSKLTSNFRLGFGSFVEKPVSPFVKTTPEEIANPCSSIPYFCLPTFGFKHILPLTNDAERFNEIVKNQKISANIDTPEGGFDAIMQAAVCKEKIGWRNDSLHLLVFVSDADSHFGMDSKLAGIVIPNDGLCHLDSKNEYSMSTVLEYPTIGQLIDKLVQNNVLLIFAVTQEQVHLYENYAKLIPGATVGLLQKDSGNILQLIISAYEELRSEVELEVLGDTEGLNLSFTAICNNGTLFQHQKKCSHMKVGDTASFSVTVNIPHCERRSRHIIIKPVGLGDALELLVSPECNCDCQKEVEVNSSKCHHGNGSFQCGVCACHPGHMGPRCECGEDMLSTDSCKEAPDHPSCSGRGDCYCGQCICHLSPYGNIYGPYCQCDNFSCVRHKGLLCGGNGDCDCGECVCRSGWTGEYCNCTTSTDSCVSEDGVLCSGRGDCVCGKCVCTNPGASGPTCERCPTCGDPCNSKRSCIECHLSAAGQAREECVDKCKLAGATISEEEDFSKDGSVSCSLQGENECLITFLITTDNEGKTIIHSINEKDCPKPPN

Question: For LAKKQRFRHRNRKGYRS [VTN(365–381 a.a.)], which “integrin binding specificity” value (integrin αVβ6) is on record?
Answer: only showed a high affinity for integrin αVβ6

Question: And the “interaction with αVβ3” value (αVβ3)?
Answer: could interact with αVβ3

Question: And the “effect on β3 phosphorylation” value (β3 phosphorylation)?
Answer: its binding was sufficient to enhance β3 phosphorylation
